Like-named read-outs stand apart in the source and are kept apart here.
Columns and labels:
[1] = Acute toxicity (LD50, Behrens-Karber method); type: in vivo, ICR mice; settings: mouse, in vivo, ip, mortality during 30 days
Protocol: Test compounds, dissolved or suspended in 0.5% aqueous CMC, were each intraperitoneally administered to ICR mice in a dose of 0.1 ml per 10 g body weight. LD50 (mg/kg) value of each test compound was calculated from the mortality of mice during 30 days by the Behrens-Karber method.

Leukemia L1210 [2] = assay: Activity against Leukemia L1210, oral, increase in life span of mice; type: in vivo, female mice (BDF1 family); settings: for ED (maximum ILS) / ED30: Mus musculus, L1210, oral once a day for 5 successive days; for ED (maximum ILS): daily dosage giving maximum increase of life span, read-out: O.D. (optimum dosage); for ED30: daily dosage increasing average survival days by 30%, read-out: ILS30; for Survivors after 60 days / Max. ILS % / Therapeutic ratio TR: oral; for Survivors after 60 days: 6-membered group; for Max. ILS %: 60-day observation, versus control; for Therapeutic ratio TR: O.D./ILS30
Protocol: Tests were conducted in accordance with the method for measuring antitumor activity of National Cancer Center Tokyo (A, Hoshi et al, Farumashia 9 464 (1973)). Test compounds were each intraperitoneally (referred to as ip) or orally (referred to as op) administered once a day for 5 successive days to a 6-membered group of femal mice (BDF1 family, each weighing 20 to 23 g) 24 hours after 1×10^5 cells of Leukemia L1210 have been implantated into the abdominal cavities of the mice, and the effect was evaluated by comparing the survival days of treated groups with those of an untreated group of mice (control group) in 60-day observation. An increase percentage of life span (ILS%) was calculated from said average survival days compared with those of the control group. Further, therapeutic ratio (O.D./ILD30, referred to as T.R.) of each tested compound was calculated from the daily dosage of the compound necessary to increase said average survival days by 30% as compared with the control group (this dosage is referred to as ILS 30) and the daily dosage giving a maximum increase of life span to mice implantated with L1210 cells, namely an optimum dosage (referred to as O.D.). The results of five successive days intraperitoneal administrations of test compounds were shown in Tables I to III, and those of five successive oral administrations in Table IV.

Leukemia L1210 [3] = assay: Activity against Leukemia L1210, intraperitoneal, increase in life span of mice; type: in vivo, female mice (BDF1 family); settings: for ED (maximum ILS) / ED30: Mus musculus, L1210, ip, ip once a day for 5 successive days; for ED (maximum ILS): daily dosage giving maximum increase of life span, read-out: O.D. (optimum dosage); for ED30: daily dosage increasing average survival days by 30%, read-out: ILS30; for Survivors after 60 days / Max. ILS % / Therapeutic ratio TR: ip; for Survivors after 60 days: 6-membered group; for Max. ILS %: 60-day observation, versus control; for Therapeutic ratio TR: O.D./ILS30
Outline: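 Mice (female BDF1, 20–23 g) carrying 1×10^5 ip-implanted L1210 cells were given daily ip or oral doses for 5 days; ILS% came from mean survival over 60 days relative to controls.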

Ehrlich acites carcinoma = assay: Growth-inhibiting effect against Ehrlich acites carcinoma; type: in vivo, male mice; settings: Mus musculus, Ehrlich, 120 h, 5 days; for response vs control in vivo at 25 mg/kg: 25 mg/kg/day ip; for response vs control in vivo at 100 mg/kg: 100 mg/kg/day ip
Protocol: Ehrlich acites carcinoma (1×10^7 cells) was implantated into the abdominal cavities of a 6-membered group of male mice. Test compounds (solutions or suspensions in 1% Nikohl HCO-60) were each intraperioneally administered once a day 5 successive days to the mice 24 hrs. after the implantation. Total packed cell volumes [TPCV, namely, total packed volumes of Acites carcinoma] were determined 7 days after the implantation to calculate growth ratio of tumor [T/C%; T: packed volume of Acites carcinoma in treated groups, C: packed volume of Acites carcinoma in an untreated group]. Acitivity is represented by - when T/C% is 100-66, by + when T/C% 65-41, by ++ when T/C% 40-11, and by +++ when T/C% 10-0.

| Structure (SMILES) | LD50 at 720 h [1] [mg/kg] | ED (maximum ILS) (Leukemia L1210 [2]) [mg/kg] | ED30 (Leukemia L1210 [2]) [mg/kg] | Survivors after 60 days (Leukemia L1210 [2]) | Max. ILS % (Leukemia L1210 [2]) [%] | Therapeutic ratio TR (Leukemia L1210 [2]) | ED (maximum ILS) (Leukemia L1210 [3]) [mg/kg] | ED30 (Leukemia L1210 [3]) [mg/kg] | Survivors after 60 days (Leukemia L1210 [3]) | Max. ILS % (Leukemia L1210 [3]) [%] | Therapeutic ratio TR (Leukemia L1210 [3]) | response vs control in vivo at 25 mg/kg (Ehrlich acites carcinoma; read-out: Activity) [%] | response vs control in vivo at 25 mg/kg (Ehrlich acites carcinoma; read-out: T/C %) [%] | response vs control in vivo at 100 mg/kg (Ehrlich acites carcinoma; read-out: Activity) [%] | response vs control in vivo at 100 mg/kg (Ehrlich acites carcinoma; read-out: T/C %) [%] |
| --- | --- | --- | --- | --- | --- | --- | --- | --- | --- | --- | --- | --- | --- | --- | --- |
| COC(C)CN(C[C@H]1O[C@H](OC(C)C)[C@H](O)[C@@H](O)[C@@H]1O)C(=O)N(CCCl)N=O (stereo partly drawn) [Compound 2, 3-(2-methoxy-n-propyl)-3-(isopropyl α-D-glucopyranose-6-yl)-1-(2-chloroethyl)-1-nitrosourea] | 420 | 180 | 7.35 | 6/6 | > 700 | 24.5 | 140 | 2.3 | 6/6 | > 700 | 60.9 | – | – | – | – |
| COCCCO[C@H]1O[C@H](CN(C(=O)N(CCCl)N=O)C2CCCCC2)[C@@H](O)[C@H](O)[C@H]1O [Compound 174, 3-cyclohexyl-3-(3-methoxy-n-propyl α-D-glucopyranose-6-yl)-1-(2-chloroethyl)-1-nitrosourea] | 610 | 230 | 9.66 | 5/6 | > 620 | 23.8 | 180 | 2.78 | 6/6 | > 700 | 64.8 | – | – | – | – |
| CCOCCO[C@H]1O[C@H](CO)[C@@H](O)[C@H](O)[C@H]1N(CCC(C)(C)C)C(=O)N(CCCl)N=O [Compound 192, 3-(3,3-dimethyl-n-butyl)-3-(2-ethoxyethyl α-D-glucopyranose-2-yl)-1-(2-chloroethyl)-1-nitrosourea] | 515 | 200 | 9.85 | 5/6 | > 625 | 20.3 | 160 | 2.74 | 6/6 | > 700 | 58.4 | – | – | – | – |
| COCCN(C(=O)N(CCCl)N=O)C1C(O)C(CO)OC(OC2CCCCC2)C1O [Compound 89, 3-(2-methoxyethyl)-3-(cyclohexyl α-D-glucopyranose-3-yl)-1-(2-chloroethyl)-1-nitrosourea] | 690 | 210 | 12.5 | 4/6 | > 450 | 16.8 | 170 | 2.66 | 6/6 | > 700 | 63.9 | – | – | – | – |
| CCC(COC)O[C@H]1O[C@H](CN(CC(C)(C)C)C(=O)N(CCCl)N=O)[C@@H](O)[C@H](O)[C@H]1O (stereo partly drawn) [Compound 185, 3-neopentyl-3-(1-methoxy-2-n-butyl α-D-glucopyranose-6-yl)-1-(2-chloroethyl)-1-nitrosourea] | 550 | 200 | 8.16 | 5/6 | > 625 | 24.5 | 170 | 2.69 | 6/6 | > 700 | 63.1 | – | – | – | – |
| COCCCO[C@H]1O[C@H](CN(CC(C)(C)C)C(=O)N(CCCl)N=O)[C@@H](O)[C@H](O)[C@H]1O [Compound 186, 3-neopentyl-3-(3-methoxy-n-propyl α-D-glucopyranose-6-yl)-1-(2-chloroethyl)-1-nitrosourea] | 520 | 200 | 8.55 | 5/6 | > 620 | 23.4 | 160 | 2.49 | 6/6 | > 700 | 64.3 | – | – | – | – |
| CCOCCN(C(=O)N(CCCl)N=O)[C@H]1[C@@H](OCC(C)C)O[C@H](CO)[C@H](O)[C@@H]1O [Compound 123, 3-(2-ethoxyethyl)-3-(isobutyl α-D-galactopyranose-2-yl)-1-(2-chloroethyl)-1-nitrosourea] | 730 | 240 | 13.2 | 3/6 | > 360 | 18.2 | 200 | 4.98 | 3/6 | > 365 | 40.2 | – | – | – | – |
| COC(C)CN(C(=O)N(CCCl)N=O)[C@H]1CO[C@@H](OCC(C)C)[C@H](O)[C@H]1O (stereo partly drawn) [Compound 153, 3-(2-methoxy-n-propyl)-3-(isobutyl α-L-arabinopyranose-4-yl)-1-(2-chloroethyl)-1-nitrosourea] | 480 | 180 | 10.8 | 4/6 | > 425 | 16.7 | 150 | 2.57 | 5/6 | > 625 | 58.4 | – | – | – | – |
| CCOCCO[C@H]1O[C@H](CN(C(=O)N(CCCl)N=O)C(C)C)[C@H](O)[C@H](O)[C@H]1O [Compound 113, 3-isopropyl-3-(2-ethoxyethyl α-D-galactopyranose-6-yl)-1-(2-chloroethyl)-1-nitrosourea] | 450 | 180 | 7.32 | 6/6 | > 700 | 24.6 | 150 | 2.23 | 6/6 | > 700 | 67.3 | – | – | – | – |
| COC(C)CCO[C@H]1O[C@H](CN(C(=O)N(CCCl)N=O)C(C)(C)C)[C@@H](O)[C@H](O)[C@H]1O (stereo partly drawn) [Compound 198, 3-tert-butyl-3-(3-methoxy-n-butyl α-D-glucopyranose-6-yl)-1-(2-chloroethyl)-1-ntirosourea] | 570 | 220 | 9.69 | 5/6 | > 640 | 22.7 | 180 | 2.76 | 6/6 | > 700 | 65.3 | – | – | – | – |
| CCCCN(C[C@H]1O[C@H](OCCCOC)[C@H](O)[C@@H](O)[C@@H]1O)C(=O)N(CCCl)N=O [Compound 30, 3-n-butyl-3-(3-methoxy-n-propyl-α-D-glucopyranose-6-yl)-1-(2-chloroethyl)-1-nitrosourea] | 450 | – | – | – | – | – | 150 | 2.61 | 6/6 | > 700 | 57.5 | 0 to 10 | 0 | 0 to 10 | 0 |
| O=NN(CCCl)C(=O)N(CC1CCCO1)C[C@H]1O[C@H](OC2CCCCC2)[C@H](O)[C@@H](O)[C@@H]1O (stereo partly drawn) [Compound 50, 3-tetrahydrofurfuryl-3-(cyclohexyl α-D-glucopyranose-6-yl)-1-(2-chloroethyl)-1-nitrosourea] | 450 | – | – | – | – | – | 150 | 2.31 | 6/6 | > 700 | 64.9 | 0 to 10 | 0 | 0 to 10 | 0 |

Reference: patent US4593090A, “Novel nitrosourea compounds, method for preparing same, and pharmaceutical composition containing same” (Gogo Kimura, priority 1981, dated 1986)
